Results reported in US10308608B2, “Histone deacetylase inhibitors” (BIOMARIN PHARMACEUTICAL INC., priority 2015, dated 2019).
Counter-ions that a name gives are not always drawn. Like-named read-outs stand apart in the source and are kept apart here.

Tested on: Frataxin (FXN) mRNA
Experiment: Effect of HDAC inhibitors on frataxin (FXN) mRNA expression, qRT-PCR in compound-treated iPSC derived neuronal cells
Assay type: cell-based
Conditions: iPSC, 24 h
Procedure: Effect of HDAC Inhibitors on Frataxin (FXN) mRNA Expression
Method: mRNA quantification of compound-treated iPSC derived neuronal cells Neuronal stem cells were cultured in Neurobasal A medium (Life technologies #10888022) supplemented with N2, B27 (Life technologies #17502-048 and #17504-044), L-glutamine (Life technologies #25030081), supplemented with 20 ng/ml EGF (R&D Systems #236-EG) and 20 ng/ml bFGF (BioPioneer # HRP-0011). Neuronal differentiation was initiated by removing growth factors and culturing cells in Neurobasal A with N2 and B27. Cells were allowed to differentiate for 16 days. HDAC inhibitory compound was then added and incubate for 24 h. RNA isolation was performed using the RNeasy Plus mini kit (QIAgen #74134) using a QIAcube instrument per manufacturer's instructions. qRT-PCR was performed using qScript One-Step SYBR Green qRT-PCR Kit (Quanta Biosciences 170-8893BR) with the following conditions: 20 minutes at 50° C., 5 minutes at 95° C., and then 40 cycles of 20 seconds at 95° C., 20 seconds at 55° C., 30 seconds at 72° C. The primer sequences to detect expression of FXN were: 5′-[…]-3′ and 5′-[…]-3′.
The data for the following compounds, for FXN mRNA fold induction at a compound concentration of 0.625 μM are shown in Table 1, where A<1, 1<B<2, 2<C<3, 3<D<5, E>5.

[1] = compound concentration of 0.625 μM, 24 h incubation, read-out: FXN mRNA fold induction
[2] = read-out: FXN mRNA fold induction, compound concentration of 0.625 μM, 24 h incubation

Structure (SMILES) | fold induction at 0.625 µM [1] | fold induction at 0.625 µM [2]
Nc1ccccc1NC(=O)c1ccc(NC2CNC2)cc1 [Compound 86, N-(2-aminophenyl)-4-(azetidin-3-ylamino)benzamide trihydrochloride] | 2 to 3 | 
Nc1ccccc1NC(=O)c1ccc(O[C@@H]2CCNC2)cc1 [Compound 57, (R)-N-(2-aminophenyl)-4-(pyrrolidin-3-yloxy)benzamide hydrochloride] | 2 to 3 | 
CC(C)(C)CN1C2CCC1CC(Oc1ccc(C(=O)Nc3ccccc3N)cc1)C2 (stereo not shown) [Compound 74, N-(2-aminophenyl)-4-((8-neopentyl-8-azabicyclo[3.2.1]octan-3-yl)oxy)benzamide dihydrochloride] |  | 1 to 2
CC1(CN2CC[C@@H](Nc3ccc(C(=O)Nc4ccccc4N)cc3)C2)CC1 [Compound 108, (R)-N-(2-aminophenyl)-4-((1-((1-methylcyclopropyl)methyl)pyrrolidin-3-yl)amino)benzamide] | 2 to 3 | 
Nc1ccccc1NC(=O)c1ccc(NC2CCCNCC2)cc1 (stereo not shown) [Compound 78, N-(2-aminophenyl)-4-(azepan-4-ylamino)benzamide tris(2,2,2-trifluoroacetate)] | 2 to 3 | 
Nc1ccccc1NC(=O)c1ccc(OC2CC3CCC(C2)N3CC2CCCCC2)cc1 (stereo not shown) [Compound 77, N-(2-aminophenyl)-4-((8-(cyclohexylmethyl)-8-azabicyclo[3.2.1]octan-3-yl)oxy)benzamide dihydrochloride] |  | 1 to 2
Nc1ccccc1NC(=O)c1ccc(N(CC2CC2)C2CCN(CC3CC3)CC2)cc1 [Compound 28, N-(2-aminophenyl)-4-((cyclopropylmethyl)(1-(cyclopropylmethyl)piperidin-4-yl)amino)benzamide Trihydrochloride] |  | 2 to 3
CN1CC[C@H](Nc2ccc(C(=O)Nc3ccccc3N)cc2)C1 [Compound 95, (S)-N-(2-aminophenyl)-4-((1-methylpyrrolidin-3-yl)amino)benzamide] | 1 to 2 | 
CC(C)(O)CN1CCC(Oc2ccc(C(=O)Nc3ccccc3N)cc2)CC1 [Compound 2, N-(2-aminophenyl)-4-((1-(2-hydroxy-2-methylpropyl)piperidin-4-yl)oxy)benzamide] | 1 to 2 | 
CC1(CN2CCCC(Oc3ccc(C(=O)Nc4ccccc4N)cc3)CC2)CC1 (stereo not shown) [Compound 39, N-(2-aminophenyl)-4-((1-((1-methylcyclopropyl)methyl)azepan-4-yl)oxy)benzamide] | 3 to 5 | 
Nc1ccccc1NC(=O)c1ccc(OC2CCCN(CC3CCCCC3)CC2)cc1 (stereo not shown) [Compound 40, N-(2-aminophenyl)-4-((1-(cyclohexylmethyl)azepan-4-yl)oxy)benzamide dihydrochloride] | 3 to 5 | 
CC(C)CN1CC[C@H](Oc2ccc(C(=O)Nc3ccccc3N)cc2)C1 [Compound 51, (S)-N-(2-aminophenyl)-4-((1-isobutylpyrrolidin-3-yl)oxy)benzamide dihydrochloride] | 1 to 2 | 
Nc1ccccc1NC(=O)c1ccc(OC2CCCN(C3CC3)CC2)cc1 (stereo not shown) [Compound 123, N-(2-aminophenyl)-4-((1-cyclopropylazepan-4-yl)oxy)benzamide benzamide dihydrochloride] | 1 to 2 | 
Nc1ccccc1NC(=O)c1ccc(OC2CNC2)cc1 [Compound 41, N-(2-aminophenyl)-4-(azetidin-3-yloxy)benzamide hydrochloride] | 1 to 2 | 
CC(C)CN1CCCC(Oc2ccc(C(=O)Nc3ccccc3N)cc2)CC1 (stereo not shown) [Compound 35, N-(2-aminophenyl)-4-((1-isobutylazepan-4-yl)oxy)benzamide dihydrochloride] | 2 to 3 | 
CC(C)(C)CN1CCCC(Oc2ccc(C(=O)Nc3ccccc3N)cc2)CC1 (stereo not shown) [Compound 37, N-(2-aminophenyl)-4-((1-neopentylazepan-4-yl)oxy)benzamide] | 2 to 3 | 
CC(C)(C)CN1C2CCC1CC(Nc1ccc(C(=O)Nc3ccccc3N)cc1)C2 (stereo not shown) [Compound 119, N-(2-aminophenyl)-4-((8-neopentyl-8-azabicyclo[3.2.1]octan-3-yl)amino)benzamide] |  | 2 to 3
Nc1ccccc1NC(=O)c1ccc(O[C@@H]2CCN(C3CC3)C2)cc1 [Compound 129, (R)-N-(2-aminophenyl)-4-((1-cyclopropylpyrrolidin-3-yl)oxy)benzamide] | 1 to 2 | 
CN1CC[C@@H](Oc2ccc(C(=O)Nc3ccccc3N)cc2)C1 [Compound 58, (R)-N-(2-aminophenyl)-4-((1-methylpyrrolidin-3-yl)oxy)benzamide] | 2 to 3 | 

Structure (SMILES) | fold induction at 0.625 µM [1] | fold induction at 0.625 µM [2]
Nc1ccccc1NC(=O)c1ccc(OC2CN(C3COC3)C2)cc1 [Compound 126, N-(2-aminophenyl)-4-((1-(oxetan-3-yl)azetidin-3-yl)oxy)benzamide] | 1 to 2 | 
CC(C)(O)CN1CC[C@@H](Oc2ccc(C(=O)Nc3ccccc3N)cc2)C1 [Compound 60, (R)-N-(2-aminophenyl)-4-((1-(2-hydroxy-2-methylpropyl)pyrrolidin-3-yl)oxy)benzamide dihydrochloride] | 1 to 2 | 
CC(C)(O)CN1CC(Oc2ccc(C(=O)Nc3ccccc3N)cc2)C1 [Compound 44, N-(2-aminophenyl)-4-((1-(2-hydroxy-2-methylpropyl)azetidin-3-yl)oxy)benzamide dihydrochloride] | 1 to 2 | 
CN1CCCC(Oc2ccc(C(=O)Nc3ccccc3N)cc2)CC1 (stereo not shown) [Compound 34, N-(2-aminophenyl)-4-((1-methylazepan-4-yl)oxy)benzamide bis(2,2,2-trifluoroacetate)] | 1 to 2 | 
CC(C)(O)CN1C2CCC1CC(Nc1ccc(C(=O)Nc3ccccc3N)cc1)C2 (stereo not shown) [Compound 118, N-(2-aminophenyl)-4-((8-(2-hydroxy-2-methylpropyl)-8-azabicyclo[3.2.1]octan-3-yl)amino)benzamide] |  | 2 to 3
CC(C)(O)CN1CCCC(Nc2ccc(C(=O)Nc3ccccc3N)cc2)CC1 (stereo not shown) [Compound 81, N-(2-aminophenyl)-4-((1-(2-hydroxy-2-methylpropyl)azepan-4-yl)amino)benzamide trihydrochloride] | 1 to 2 | 
Nc1ccccc1NC(=O)c1ccc(N[C@@H]2CCNC2)cc1 [Compound 102, (R)—N-(2-aminophenyl)-4-(pyrrolidin-3-ylamino)benzamide Trihydrochloride] | 2 to 3 | 
Nc1ccccc1NC(=O)c1ccc(O[C@H]2CCCN(CC3CC3)CC2)cc1 [Compound 38A, (S)-N-(2-aminophenyl)-4-((1-(cyclopropylmethyl)azepan-4-yl)oxy)benzamide] | < 1 | 
CN(c1ccc(C(=O)Nc2ccccc2N)cc1)C1CCN(CC2CC2)CC1 [Compound 5, N-(2-aminophenyl)-4-((1-(cyclopropylmethyl)piperidin-4-yl)(methyl)amino)benzamide] |  | 2 to 3
CC(=O)N1CC(Nc2ccc(C(=O)Nc3ccccc3N)cc2)C1 [Compound 170, 4-((1-acetylazetidin-3-yl)amino)-N-(2-aminophenyl)benzamide] | 1 to 2 | 
CC(C)CN1C2CCC1CC(Nc1ccc(C(=O)Nc3ccccc3N)cc1)C2 (stereo not shown) [Compound 117, N-(2-aminophenyl)-4-((8-isobutyl-8-azabicyclo[3.2.1]octan-3-yl)amino)benzamide] |  | 2 to 3
CC(C)(C)CN1CC[C@H](Nc2ccc(C(=O)Nc3ccccc3N)cc2)C1 [Compound 98, (S)-N-(2-aminophenyl)-4-((1-neopentylpyrrolidin-3-yl)amino)benzamide trihydrochloride] | 2 to 3 | 
Nc1ccccc1NC(=O)c1ccc(OC2CN(CC3CCCCC3)C2)cc1 [Compound 48, N-(2-aminophenyl)-4-((1-(cyclohexylmethyl)azetidin-3-yl)oxy)benzamide dihydrochloride] | 2 to 3 | 
CC(C)CN1CC[C@@H](Oc2ccc(C(=O)Nc3ccccc3N)cc2)C1 [Compound 59, (R)-N-(2-aminophenyl)-4-((1-isobutylpyrrolidin-3-yl)oxy)benzamide dihydrochloride] | 1 to 2 | 
Nc1ccccc1NC(=O)c1ccc(OC2CCCN(CC3CC3)CC2)cc1 (stereo not shown) [Compound 38, N-(2-aminophenyl)-4-((1-(cyclopropylmethyl)azepan-4-yl)oxy)benzamide dihydrochloride] | 2 to 3 | 
CC(C)(O)CN1CC[C@H](Oc2ccc(C(=O)Nc3ccccc3N)cc2)C1 [Compound 52, (S)-N-(2-aminophenyl)-4-((1-(2-hydroxy-2-methylpropyl)pyrrolidin-3-yl)oxy)benzamide dihydrochloride] | 1 to 2 | 
Nc1ccccc1NC(=O)c1ccc(NC2CN(CC3CCCCC3)C2)cc1 [Compound 93, N-(2-aminophenyl)-4-((1-(cyclohexylmethyl)azetidin-3-yl)amino)benzamide] | 2 to 3 | 
Nc1ccccc1NC(=O)c1ccc(OC2CCCN(C3COC3)CC2)cc1 (stereo not shown) [Compound 124, N-(2-aminophenyl)-4-((1-(oxetan-3-yl)azepan-4-yl)oxy)benzamide] | 1 to 2 | 
